Our source for the Kd and IC50 values is patent US20250332300A1 (priority 2024, published 2025).

Common to all, as to assay type: binding
The target of test [1] is T1, human HER2 (23-652) (Homo sapiens, UniProt P04626). Put plainly: Surface plasmon resonance (SPR) for assessment of peptide affinity, human HER2. Details: towards human HER2 (23-652) and mouse HER2 (23-653); made in house. In outline: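 Binding kinetics fitted from sensorgrams with 280 s peptide association then 3000 s dissociation (30 uL/min), using HER2 (23-652) either directly immobilized (SA/CM5) or anti-Fc-captured; 3 M magnesium chloride used for regeneration.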
In general terms: Surface plasmon resonance follows binding to a sensor surface in real time, without labels.

Test [2] addresses T2, mouse HER2 (23-653) (Mus musculus, UniProt P70424). Put plainly: Surface plasmon resonance (SPR) for assessment of peptide affinity, mouse HER2. Details: mouse HER2 (23-653) using a Cy5 labeled peptide as a probe; made in house. The source says:
Each protein was immobilized either onto a SA sensorchip (Cytiva, BR-1005-31) or CM5 sensorchip (Cytiva, BR-1005-30) to a density of 800-2000 RU.

Test [3] has as its target T1, human HER2 (23-652). Put plainly: TR-FRET competition assay for peptide potency, human HER2. Details: towards human HER2 (23-652) and mouse HER2 (23-653); made in house; host or cells: mammalian cells. For orientation: In TR-FRET formats the signal depends on donor and acceptor labels being close together.
Test [4] deals with T2, mouse HER2 (23-653). Kind of test: TR-FRET competition assay for peptide potency, mouse HER2. Details: mouse HER2 (23-653) using a Cy5 labeled peptide as a probe; made in house; host or cells: mammalian cells.
Where [5] appears, read: SPR, mouse HER2 extracellular domain, 25° C., 1:1 binding model, read-out: moHER2-SPR-ONC KD.
Where [6] appears, read: huHER2 TR-FRET IC50, TR-FRET competition with Cy5 labeled peptide probe, 0.1 nM human HER2, 24 h incubation.
Where [7] appears, read: TR-FRET competition with Cy5 labeled peptide probe, 0.1 nM mouse HER2, 24 h incubation, read-out: moHER2 TR-FRET IC50.
Setting [8] is: SPR, human HER2 extracellular domain, 25° C., 1:1 binding model, read-out: huHER2-SPR-ONC KD.
The mark [9] stands for this setting: value in parentheses (**): recalculated after further repetition, read-out: huHER2 TR-FRET IC50, recalculated value achieved after further repetition.
Setting [10] is: value in parentheses (**): recalculated after further repetition, read-out: moHER2 TR-FRET IC50, recalculated value achieved after further repetition.
Where [11] appears, read: moHER2 TR-FRET IC50, TR-FRET competition with Cy5 labeled peptide probe, 0.1 nM mouse HER2, 24 h incubation.

Counter-ions that a name gives are not always drawn. Like-named read-outs stand apart in the source and are kept apart here. Starred links: 1 amine or outer side, 2 acyl side, 3 side chain; linkers in the order of their positions; H or OH if unused. Positions of bridges follow the written chain, without caps; N, C: chain ends. Non-standard residues stand in square brackets, D forms with d. Residues, ends and D or L forms follow the SMILES beside them. Groups on a side chain read outwards from the residue. *: point of attachment. DOTA = O=C(O)CN1CCN(CC(=O)O)CCN(CC(=O)*)CCN(CC(=O)O)CC1; Trp(5-OH) = N[C@@H](Cc1c[nH]c2ccc(O)cc12)C(=O)O; Piperazinyl(4-CH2COOH) = O=C(O)CN1CCN(*)CC1; NMePhe(4-F) = CN[C@@H](Cc1ccc(F)cc1)C(=O)O; NMehPhe = CN[C@@H](CCc1ccccc1)C(=O)O; X3 = NC[C@H](CCC(=O)[*:2])C(=O)[*:1]; Aad = N[C@@H](CCCC(=O)O)C(=O)O; Gly(cPr) = N[C@H](C(=O)O)C1CC1; NMeK = CN[C@@H](CCCCN)C(=O)O; NMeDap = CN[C@@H](CN)C(=O)O; NMeS = CN[C@@H](CO)C(=O)O; CO = O=C([*:1])[*:2] Some results are limits rather than exact numbers.

One may read the Kd as a measure of binding affinity in units of concentration. In general, IC50 refers to the concentration needed to halve the response being measured. For the compound `CN1C(=O)[C@H](CO)NC(=O)[C@H](Cc2ccc(O)cc2)NC(=O)[C@@H](N)CCCC(=O)NC[C@@H](C(=O)N(C)[C@@H](Cc2ccc(F)cc2)C(N)=O)N(C)C(=O)[C@H](C2CC2)NC(=O)[C@H](Cc2c[nH]c3ccccc23)NC(=O)[C@H](Cc2c[nH]c3ccc(O)cc23)NC(=O)[C@H](CO)N(C)C(=O)[C@@H]1CCc1ccccc1` [Example A36, (3S,6S,9S,12S,15S,18S,21S,24S,27S)-9-((1H-indol-3-yl)methyl)-27-amino-N-((S)-1-amino-3-(4-fluorophenyl)-1-oxopropan-2-yl)-6-cyclopropyl-12-((5-hydroxy-1H-indol-3-yl)methyl)-24-(4-hydroxybenzyl)-15,21-bis(hydroxymethyl)-N,4,16,19-tetramethyl-5,8,11,14,17,20,23,26,31-nonaoxo-18-phenethyl-1,4,7,10,13,16,19,22,25-nonaazacyclohentriacontane-3-carboxamide TFA salt] (H-[Aad]YS[NMehPhe][NMeS][Trp(5-OH)]W[Gly(cPr)][NMeDap][NMePhe(4-F)]-NH2; lactam 1-9), the dissociation constant Kd at human HER2 (23-652) [1] was found to be 38 nM; on mouse HER2 (23-653) [2] (setting [5]), 34 nM. Moreover, the IC50 on human HER2 (23-652) [3] (setting [6]) worked out at 52 nM; on mouse HER2 (23-653) [4] (setting [7]), 102 nM.
Take `CC(=O)NCCCC[C@H]1C(=O)N[C@@H](Cc2c[nH]c3ccc(O)cc23)C(=O)N[C@@H](Cc2c[nH]c3ccccc23)C(=O)N[C@@H](C2CC2)C(=O)N(C)[C@H](C(=O)N(C)[C@@H](Cc2ccc(F)cc2)C(=O)N[C@@H](CCCCNC(=O)CN2CCN(CC(=O)O)CCN(CC(=O)O)CCN(CC(=O)O)CC2)C(N)=O)CNC(=O)CCC[C@H](NC(C)=O)C(=O)N[C@@H](Cc2ccc(O)cc2)C(=O)N[C@@H](CCCCNC(=O)N2CCN(CC(=O)O)CC2)C(=O)N(C)[C@@H](CCc2ccccc2)C(=O)N1C` [Example C7] (Ac-[Aad]YK([CO-Piperazinyl(4-CH2COOH)])[NMehPhe][NMeK](Ac)[Trp(5-OH)]W[Gly(cPr)][NMeDap][NMePhe(4-F)]K(DOTA)-NH2; lactam 1-9): the values for the equilibrium dissociation constant (Kd) on human HER2 (23-652) [1] (setting [8]) and at mouse HER2 (23-653) [2] (setting [5]) were 1150 nM and 799 nM, respectively. Further, the IC50 on human HER2 (23-652) [3] (TR-FRET competition with Cy5 labeled peptide probe, 0.1 nM human HER2, 24 h incubation, read-out: huHER2 TR-FRET IC50) was 236 nM; on human HER2 (23-652) [3] (setting [9]), 164 nM; on mouse HER2 (23-653) [4] (setting [7]), 422 nM; at mouse HER2 (23-653) [4] (setting [10]), 434 nM.
`CC(=O)NCCCC[C@H]1C(=O)N[C@@H](Cc2c[nH]c3ccc(O)cc23)C(=O)N[C@@H](Cc2c[nH]c3ccccc23)C(=O)N[C@@H](C2CC2)C(=O)N(C)[C@H](C(=O)N(C)[C@@H](Cc2ccc(F)cc2)C(=O)N[C@@H](CCCCN)C(N)=O)CNC(=O)CCC[C@H](NC(C)=O)C(=O)N[C@@H](Cc2ccc(O)cc2)C(=O)N[C@@H](CO)C(=O)N(C)[C@@H](CCc2ccccc2)C(=O)N1C` [Example A40, TFA salt]: the dissociation constant (Kd) on human HER2 (23-652) [1] and on mouse HER2 (23-653) [2] (setting [5]) was under 0.1 nM throughout. The concentration for half-maximal inhibition (IC50) at human HER2 (23-652) [3] (setting [6]) is under 0.1 nM; at mouse HER2 (23-653) [4] (setting [7]), 0.2 nM.
`CC(=O)N[C@H]1CCC(=O)NC[C@@H](C(=O)N(C)[C@@H](Cc2ccc(F)cc2)C(N)=O)N(C)C(=O)[C@H](C2CC2)NC(=O)[C@H](Cc2c[nH]c3ccccc23)NC(=O)[C@H](Cc2c[nH]c3ccc(O)cc23)NC(=O)[C@H](CO)N(C)C(=O)[C@H](CCc2ccccc2)N(C)C(=O)[C@H](CCCC(=O)O)NC(=O)[C@H](Cc2ccc(O)cc2)NC1=O` [Example A27, 4-((2S,5S,8S,11S,14S,17S,20S,23S,29S)-17-((1H-indol-3-yl)methyl)-29-acetamido-23-(((S)-1-amino-3-(4-fluorophenyl)-1-oxopropan-2-yl)(methyl)carbamoyl)-20-cyclopropyl-14-((5-hydroxy-1H-indol-3-yl)methyl)-2-(4-hydroxybenzyl)-11-(hydroxymethyl)-7,10,22-trimethyl-3,6,9,12,15,18,21,26,30-nonaoxo-8-phenethyl-1,4,7,10,13,16,19,22,25-nonaazacyclotriacontan-5-yl)butanoic acid] (Ac-EY[Aad][NMehPhe][NMeS][Trp(5-OH)]W[Gly(cPr)][NMeDap][NMePhe(4-F)]-NH2; lactam 1-9): the results for the Kd on human HER2 (23-652) [1] (setting [8]) and on mouse HER2 (23-653) [2] (setting [5]) were 248 nM and 210 nM, respectively. The IC50 at human HER2 (23-652) [3] (read-out: huHER2 TR-FRET IC50) came to 391 nM; at mouse HER2 (23-653) [4] (setting [7]), 627 nM.
For `CC(=O)NCCCC[C@H]1C(=O)N[C@@H](Cc2c[nH]c3ccc(O)cc23)C(=O)N[C@@H](Cc2c[nH]c3ccccc23)C(=O)N[C@@H](C2CC2)C(=O)N(C)[C@H](C(=O)N(C)[C@@H](Cc2ccc(F)cc2)C(=O)N2CCC[C@H]2C(N)=O)CNC(=O)CCC[C@H](NC(C)=O)C(=O)N[C@@H](Cc2ccc(O)cc2)C(=O)N[C@@H](CO)C(=O)N(C)[C@@H](CCc2ccccc2)C(=O)N1C` [Example A2, (3S,6S,9S,12S,15S,18S,21S,24S,27S)-9-((1H-indol-3-yl)methyl)-27-acetamido-15-(4-acetamidobutyl)-N-((S)-1-((S)-2-carbamoylpyrrolidin-1-yl)-3-(4-fluorophenyl)-1-oxopropan-2-yl)-6-cyclopropyl-12-((5-hydroxy-1H-indol-3-yl)methyl)-24-(4-hydroxybenzyl)-21-(hydroxymethyl)-N,4,16,19-tetramethyl-5,8,11,14,17,20,23,26,31-nonaoxo-18-phenethyl-1,4,7,10,13,16,19,22,25-nonaazacyclohentriacontane-3-carboxamide], the equilibrium dissociation constant (Kd) at human HER2 (23-652) [1] (setting [8]) worked out at 0.4 nM; at mouse HER2 (23-653) [2] (setting [5]), 0.2 nM. Also, the IC50 at human HER2 (23-652) [3] (read-out: huHER2 TR-FRET IC50) and at mouse HER2 (23-653) [4] (setting [7]) was 0.3 nM throughout.
Turning to `CC(=O)NCCCC[C@H]1C(=O)N[C@@H](Cc2c[nH]c3ccc(O)cc23)C(=O)N[C@@H](Cc2c[nH]c3ccccc23)C(=O)N[C@@H]([C@H](C)O)C(=O)N(C)[C@H](C(=O)N(C)[C@@H](Cc2ccc(F)cc2)C(=O)N[C@@H](CCCCNC(=O)CN2CCN(CC(=O)O)CCN(CC(=O)O)CCN(CC(=O)O)CC2)C(N)=O)CNC(=O)CC[C@H](NC(C)=O)C(=O)N[C@@H](Cc2ccc(O)cc2)C(=O)N[C@@H](CO)C(=O)N(C)[C@@H](CCc2ccccc2)C(=O)N1C` [Example C25], the Kd on human HER2 (23-652) [1] (setting [8]) worked out at 0.6 nM; at mouse HER2 (23-653) [2] (setting [5]) it was 2 nM. Besides, the IC50 was 0.9 nM on human HER2 (23-652) [3] (setting [9]), 6.1 nM at mouse HER2 (23-653) [4] (setting [7]) and 3.7 nM at mouse HER2 (23-653) [4] (setting [10]).
Turning to `CN1C(=O)[C@H](CO)NC(=O)[C@H](Cc2ccc(O)cc2)NC(=O)[C@H](CN)CCC(=O)NC[C@@H](C(=O)N(C)[C@@H](Cc2ccc(F)cc2)C(N)=O)N(C)C(=O)[C@H](C2CC2)NC(=O)[C@H](Cc2c[nH]c3ccccc23)NC(=O)[C@H](Cc2c[nH]c3ccc(O)cc23)NC(=O)[C@H](CO)N(C)C(=O)[C@@H]1CCc1ccccc1` [Example A39, (3S,6S,9S,12S,15S,18S,21S,24S,27S)-9-((1H-indol-3-yl)methyl)-N-((S)-1-amino-3-(4-fluorophenyl)-1-oxopropan-2-yl)-27-(aminomethyl)-6-cyclopropyl-12-((5-hydroxy-1H-indol-3-yl)methyl)-24-(4-hydroxybenzyl)-15,21-bis(hydroxymethyl)-N,4,16,19-tetramethyl-5,8,11,14,17,20,23,26,30-nonaoxo-18-phenethyl-1,4,7,10,13,16,19,22,25-nonaazacyclotriacontane-3-carboxamide TFA salt] (YS[NMehPhe][NMeS][Trp(5-OH)]W[Gly(cPr)][NMeDap][NMePhe(4-F)]-NH2; linker N-8 via X3), the results for the Kd on human HER2 (23-652) [1] and on mouse HER2 (23-653) [2] were 148 nM and 162 nM, respectively. Moreover, the values for the concentration for half-maximal inhibition (IC50) on human HER2 (23-652) [3] (setting [6]) and at mouse HER2 (23-653) [4] (setting [11]) were 129 nM and 436 nM, respectively.
The matching figures for `COCCOCCOCCOCCOCCOCCOCCOCCOCCOCCOCCOCCC(=O)N[C@H]1CCCC(=O)NC[C@@H](C(=O)N(C)[C@@H](Cc2ccc(F)cc2)C(=O)N[C@@H](CCCCNC(=O)c2ccc([N+](C)(C)C)nc2)C(N)=O)N(C)C(=O)[C@H](C2CC2)NC(=O)[C@H](Cc2c[nH]c3ccccc23)NC(=O)[C@H](Cc2c[nH]c3ccc(O)cc23)NC(=O)[C@H](CCCCNC(C)=O)N(C)C(=O)[C@H](CCc2ccccc2)N(C)C(=O)[C@H](CO)NC(=O)[C@H](Cc2ccc(O)cc2)NC1=O` [Example F4, TFA salt]: under 0.1 nM, 0.1 nM, under 0.1 nM and 0.3 nM.
